According to US20260027073A1, “USE OF SMALL-MOLECULE COMPOUND HAVING NAPHTHYLAMINE STRUCTURE” (HANGZHOU PHECDAMED CO., LTD., priority 2023, published 2026):
Each block holds one compound with its values, some of them ahead of it.

Columns and labels:
[1] = test system: LPS-induced sepsis in mice; test: LPS-induced sepsis survival; format: in vivo, C57 mice; conditions: 8th day; 10 mg/kg intraperitoneal once a day; LPS alone about 20%; FIG. 33
Procedure: A constructed preclinical sepsis model is a LPS-induced sepsis in mice. Injection of purified LPS into mice by intraperitoneal route or intravenous route can lead to activation of the innate immune system and simulate fulminant Gram-negative bacterial infections, the specific modeling method is as follows: 20-25 g C57 mice were selected, and 20 mg/kg LPS was injected intraperitoneally according to the body weight (the LPS was dissolved with PBS), and the experiment was divided into three groups, a model control group (LPS), a positive control treatment group (prednisone, 10 mg/kg), TJ01-013 treatment group (TJ01-013, 10 mg/kg), the mode of administration was intraperitoneal injection, the volume of administration was 5 ml/kg, the frequency of administration was once a day, and the biological deaths and changes in body weights of the mice were observed and recorded every day, and the mice were regarded as physiologically dead if their body weights decreased by 20% or more compared with that before the administration of LPS. Survival curves were plotted based on deaths observed up to 8 days after administration.

[2] = test system: Androgen-induced benign prostatic hyperplasia in rats; test: Androgen-induced benign prostatic hyperplasia; format: in vivo, SD rats; conditions: TJ01-013 30 mg/kg, Finasteride 10 mg/kg
Procedure: Androgen-induced benign prostatic hyperplasia in rats has been used in many research fields. The specific model was constructed as follows: 180 g-200 g male SD rats were given 30 mg/kg androgen intramuscularly every other day, and 15 consecutive androgen injections were given for modeling, and the experiments were divided into […], a negative control group (Sham), a model control group (Control), TJ01-013 treatment group (TJ01-013, 30 mg/kg), Finasteride treatment group (Finasteride, 10 mg/kg), and TJ01-013+Finasteride treatment group (13+F). The drug was administered at the same time as the androgen modeling, the mode of administration was by oral gavage, the volume of the administration was 10 ml/kg, the frequency of administration was daily, and the administration was ended on the 30th day, the rats were weighed and euthanized, and the prostate and urethra of the rats were taken and weighed, and the organ coefficients (weight of the prostate gland/weight of the rats) were finally calculated.

[3] = In vitro liver microsomal stability test; conditions: microsomes
Procedure: Ketanserin was selected as the reference compound. The specific method was as follows:
0.1 M K3PO4 (pH 7.4) buffer and 3×NADPH stock solution (6 mM, 5 mg/mL) were configured and preheated in a 37° C. water bath; configuration of the test compounds and the control compounds (spiking solution): adding 5 μL of the compound stock solution ([…]) into 95 μL of acetonitrile; configuration of 1.5 μM spiking solution in microsomes (0.75 mg/mL): adding 1.5 μL of spiking solution and 18.75 μL of liver microsomal solution (20 mg/mL) into 479.75 μL of K3PO4 buffer; adding 30 μL of spiking solution in microsomes into the multiwell plate, and incubating at 37° C. for 5 min; adding 15 μL of NADPH storage solution into each well to start to react, and timing; adding 150 μL of acetonitrile solution containing IS at 0 min, 5 min, 15 min, 30 min, and 45 min, respectively, stopping the reaction; oscillating for 10 min, and then centrifuging at 6,000 rpm for 15 min; taking 80 μL of supernatant from each well for LC/MS detection, and calculating T1/2.

HGPS-MSC = test: Senescence of HGPS patient derived mesenchymal stem cells; format: cell-based, human; conditions: 10 μM
Procedure: Mesenchymal stem cells HGPS-MSC differentiated from pluripotent stem cells (iPSC) of patients with Hutchinson-Gilford Progeria Syndrome (HGPS) were taken for culture, and the experiment was divided into three groups, namely, young cells cultured for 7 generations, labeled as Con-Y; senescent cells cultured for 12 generations, labeled as Con-O; and the administration group to which 10 μM of TJ01-013 was added during the process of culture, similarly cultured up to the 12th generation, labeled as Con-O+TJ01-013; the drug administration group to which 10 μM positive drug Ionafarnib was added during the process of culture, similarly cultured up to the 12th generation, and labeled as Con-O+ Ionafarnib; after the end of the treatment, all the cells were placed under the microscope to observe the morphology of the cells, and the proportion of SA-β-gal+ cells was counted. The levels of DNA damage marker γ-H2AX and heterochromatin modification H3K9me3 after TJ01-013 treatment and Ionafarnib treatment were detected by immunofluorescence technique (the specific procedure was described previously).

[4] = test system: LPS-induced acute lung injury mice; test: LPS-induced acute lung injury; format: in vivo, C57BL/6J mice
Procedure: Male mice C57BL/6J aged 6-8 weeks and weighing 18-22 g were selected for the study. After fixing the mice, 50 μl of PBS was injected into the airways of the mice under direct laryngoscopic vision to form a control group, and 5 mg/kg of LPS (E.coil) was dissolved in 50 μl of PBS and dripped to form a model group. The experiments were divided into […], each having 6 mice, namely, NS group (control group, airway drip of 50 μl PBS), LPS group (model control group, airway drip of 50 μl LPS), LPS+10 mg/kg group (airway drip of 50 μl LPS and given 10 mg/kg TJ01-013 treatment), LPS+20 mg/kg group (airway drip of 50 μl LPS and given 20 mg/kg TJ01-013 treatment), LPS+30 mg/kg group (airway drip of 50 μl LPS and given 30 mg/kg TJ01-013 treatment), LPS+Sivelestat group (Positive control group, airway drip of 50 μl LPS and given 5 mg/kg Sivelestat treatment). All groups were administered […] by intraperitoneal injection in a volume of 200 μl 1 h and 7 h after airway drip, and the mice were euthanized 24 h later, bronchoalveolar lavage fluid (BALF) was taken, and the levels of inflammatory factors in the bronchoalveolar lavage fluid were detected and the changes in the transcriptional levels of tissue-associated inflammatory factors were observed. • (2) taking and observing of Bronchoalveolar lavage fluid (BALF)
Use chloral hydrate intraperitoneal injection to make mice die of rapid overdose anesthesia, place mice in supine position on the dissection table, fix the limbs, disinfect the skin of the neck of the mice with 75% ethanol, incise the skin along the midline of the neck, bluntly separate the subcutaneous connective tissues and muscles with hemostatic forceps, expose the trachea, separate connective tissues on both sides of the trachea and between the trachea and the esophagus, and free the trachea. Two surgical sutures about 20 cm long were threaded between the trachea and esophagus. A 24G intravenous cannula needle was inserted at a 30-degree angle from the connective tissue membrane between the thyroid cartilage and the cricoid cartilage, and the intravenous cannula needle was delivered in the direction of the tracheal eminence. A surgical suture placed between the tracheo-esophageal was ligated at the entry of the cannula into the trachea and at the distal end of the cannula, respectively, and tied as tightly as possible to secure the cannula and trachea. 0.8 ml of PBS was aspirated with a 1 ml syringe, and the syringe was connected to the inlet end of the intravenous cannula needle, and PBS was slowly injected into the trachea, stayed for 30 seconds and then was withdrawn back, and a milky white frothy liquid withdrawn back was visible, and the lavage was repeated three times, and the liquid was centrifuged at 1500 rpm/min for 10 min, and the supernatant was used for cytokine assay, and the cell precipitates were coated after resuspending with PBS for Giemsa staining and sorting and counting.
The levels of inflammatory factors (inflammatory factors including IL-6, CXCL1, CXCL2, etc.) in BALF supernatant were detected according to the instructions of the ELISA test kit.
The obtained cDNA was amplified on a 96-well PCR plate using a LightCycler 480 system, and the gene level was determined by using glyceraldehyde 3-phosphate dehydrogenase (GAPDH) as an internal standard.

[5] = test system: CUMS animal model of depression; test: CUMS depression model behavioral tests; format: in vivo, C57BL/6J mice; conditions: Fluoxetine 30 mg/kg
Text: Depression, also known as depressive disorder, is characterized by significant and long-lasting depressed state of mind as the main clinical feature. The CUMS animal model of depression is a chronic unpredictable animal stress model, which simulates part of the stressor, the external material environmental stimulus, and will cause dysfunctions in the animal organism through different stress stimuli, leading to occurrence of the psychiatric disease depression. […] During this period, carefully observing the status of each mouse. • (6) Basket shaking: Placing the mice in an empty basket and shaking the basket drastically, with the criterion that the mice in the basket are unable to stand firm and sway with the shaking of the basket, for 1 hour. • (7) Olfactory stimulation: Placing anise and other spices in the mice's baskets as a means of olfactory stimulation.
The above seven experiments were conducted randomly during a week as a way to achieve unpredictability with 4 weeks of continuous stimulation.
At the end of the modeling, an open field test experiment was conducted to screen the modeled animals and group the successful modeled animals into five groups: normal group (Control), model control group (Model), positive drug treatment group (Fluoxetine), TJ0113 10 mg/kg treatment group (10 mg/kg), […], TJ0113 30 mg/kg treatment group (30 mg/kg). There were 10 mice in each group, and the administration treatment was administered by gavage, the normal and model control groups were given vehicle treatment, the vehicle was 0.5% CMC-Na, the positive drug fluoxetine hydrochloride was solubilized in saline and administered at a dose of 30 mg/kg, and the TJ0113 vehicle was 0.5% CMC-Na, and administered at a dose of 10 mg/kg and 30 mg/kg, respectively. 4 weeks after the end of the administration, behavioral tests were performed.
• (1) Adaptive feeding: Adaptive feeding with 1% sucrose water and plain water for 2 d before the start of the test, at 1 d, interchanging the sugar water and plain water to avoid positional differences for the animals, and fasting food and water for 1 d after adaption; • (2) Formal test: after fasting food and water, 1% sucrose water and plain water were given to the animals (the initial mass of sugar water and plain water is known), and weighing the remaining mass of sugar water/plain water of each animal after 24 h, and calculating the consumption rates of sugar water A and plain water B; • (3) Data analysis: sugar water preference rate=(A/A+B)×100%.
• (1) adapting to the environment: placing the animals in the test environment for 60 min to adapt to the environment before the test; • (2) Formal test: fixing the rear 1/3 of the mouse tail with tape and suspending on the stand of the experimental apparatus, with the head 15 cm from the bottom; • (3) starting timing camera, and stopping after 6 min, and recording the immobility time of the mice within 4 min; • (4) At the end of the test, using 75% alcohol to wipe the bottom and inner wall of the chamber.
• (1) adapting to the environment: placing the animals in the test environment for 60 min to adapt to the environment before the test; • (2) Formal test: placing the animals to be tested in the middle of the open field, and using the ANY-Maze software to collect the data, the test time is 10 min, and the feces and urine must be removed at the end of each round and disinfected and wiped dry with 75% alcohol; • (3) Analysis of results: total moved distance and average speed during the activity, time spent in the center area and time spent in the corner area.

[6] = TJ01-013 10, 20, 30 mg/kg, Sivelestat 5 mg/kg, FIG. 26
[7] = concentration-dependent for TJ01-013, FIG. 27

Structure (SMILES): C[C@]12C=CC(=O)C=C1CC[C@@H]1[C@@H]2C(=O)C[C@@]2(C)[C@H]1CC[C@]2(O)C(=O)CO [prednisone, reference compound]
- survival rate [1]: 100%

Structure (SMILES): CC(C)(C)NC(=O)[C@H]1CC[C@H]2[C@@H]3CC[C@H]4NC(=O)C=C[C@]4(C)[C@H]3CC[C@]12C [Finasteride]
- prostate weight ([2]; oral gavage daily to day 30, FIG. 34): reduced
- organ coefficient of prostate ([2]; oral gavage daily, FIG. 35): reduced the organ coefficient of prostate, but there was no significant difference
- weight of urethra and bladder ([2]; oral gavage daily, FIG. 36): tendency of decreasing its weight

- liver microsomal stability (elimination half-life T1/2) [3]: superior liver microsomal stability
Structure (SMILES): CN(c1cc([S+]([O-])CC(=O)O)c(O)c2ccccc12)S(=O)(=O)c1ccc(Br)cc1 (stereo not shown) [I-2]

Structure (SMILES): NC(=O)N1CCC(CC(=O)N2CCC([C@H]3c4ncc(Br)cc4CCc4cc(Cl)cc(Br)c43)CC2)CC1 [Ionafarnib, reference compound]
- percentage of SA-β-gal+ cells (HGPS-MSC; 12th generation, vs Con-O, FIG. 54): significantly decreased
- level of DNA damage marker γ-H2AX (HGPS-MSC; FIG. 55): significantly reduced
- expression level of heterochromatin-modified H3K9me3 (HGPS-MSC; FIG. 56): restored its expression level to some extent

Structure (SMILES): CC(C)(C)C(=O)Oc1ccc(S(=O)(=O)Nc2ccccc2C(=O)NCC(=O)O)cc1 [Sivelestat, reference compound]
- CXCL1 level in alveolar lavage fluid (ELISA) [4, 6]: significantly decreased
- CXCL2 level in alveolar lavage fluid (ELISA) [4, 6]: no significant effect
- IL-6 level in alveolar lavage fluid (ELISA) [4, 6]: no significant effect
- CXCL1 transcript level in lung tissue [4, 7]: significantly decreased
- CXCL2 transcript level in lung tissue [4, 7]: no significant effect
- IL-6 transcript level in lung tissue [4, 7]: no significant effect

Structure (SMILES): CNCCC(Oc1ccc(C(F)(F)F)cc1)c1ccccc1 (stereo not shown) [Fluoxetine, reference compound]
- average movement speed, open field ([5]; TJ0113 10 mg/kg and 30 mg/kg, FIG. 61): significantly increased
- sugar water preference ([5]; TJ0113 30 mg/kg, gavage, FIG. 57): significantly increased
- time in despair (immobility), tail-hanging experiment ([5]; TJ0113 30 mg/kg, FIG. 58): significantly decreased
- distance moved, open field ([5]; TJ0113 30 mg/kg, FIG. 59): significantly increased
- time in the edge area of the open field ([5]; TJ0113 30 mg/kg, FIG. 60): significantly decreased
